In US10351559B2, “Maleate salts of a B-RAF kinase inhibitor, crystalline forms, methods of preparation, and uses therefore” (BeiGene, Ltd., priority 2015, dated 2019):

What was measured:
[1] = short-term stability study (1 week, 60° C. and 40° C./75% RH); assay type: physicochemical
Protocol: Weighed about 2 mg (For XRPD: 10 mg) of each of the above salts in a 40 mL glass vial, separately. The free base form was used as control. The closed samples were capped and sealed with parafilm, while the opened samples were covered by aluminum foil with pinhole. All the samples were stored in stability chamber or dry oven at the corresponding conditions (60° C. and 40° C./75% RH) for 1 week.

[2] = hygroscopicity (moisture sorption) by DVS; assay type: physicochemical; settings: from 0 to 80% RH
Excerpt: The free base of Compound 1 was obtained originally as an amorphous solid, which is slightly hygroscopic with 2.2% water gain from 0 to 80% RH. No form transformation was observed after dynamic vapor sorption (DVS).

[3] = system: BRAF V600E and KRAS cancers; assay: Phase I clinical study; assay type: in vivo, human
CYP3A = assay: CYP isoforms responsible for metabolism; assay type: in vitro ADME
aqueous solubility study = assay type: physicochemical; settings: listed as free base of Compound 1
tissue distribution = assay type: in vivo; settings: various tissues, brain
[4] = pharmacokinetic comparison of sesqui-maleate and free base, oral; assay type: in vivo, Beagle dogs; settings: dogs, oral dose 1 mg/kg (free base); listed as Free Base (Lyophilized Amorphous Form), 1 mg/kg
Excerpt: Drugs and reagents: Crystalline Form A* of Compound 1 Sesqui-Maleate with particle sizes of D90=4.1 um, D10=1.5 um, D50=2.4 um after micronization. The material content (purity) was not less than 98.0%.
Experiment animals: Beagle dogs, male and female.
Pharmaceutical preparation: Weigh the appropriate amount of each substance and disperse in 0.5% sodium carboxymethyl cellulose (for the free base of Compound 1) or 0.5% methyl cellulose solution (for Compound 1 Sesqui-Maleate). Prepare a suspension at the desired concentration of Compound 1. All the doses and concentrations of Compound 1 were calculated with free base in this study.
Administration and sample collection: The dosing solutions will be freshly prepared prior to dose administration. The actual body weights and actual volume injected will be recorded accordingly. The dogs were fasted overnight and were allowed to intake food four hours after dosing. Each suspension was administrated orally to dogs at a dose ranged from 0.5 to 15 mg/kg. Blood samples (˜1.0 mL) will be collected at pre-dose and at different times up to 36 hours postdosing via cephalic vein plexus. Whole blood will be processed by centrifugation and plasma samples will be collected and kept at freezer prior to analysis. Plasma samples were processed by protein precipitation. Concentrations of Compound 1 in the plasma samples were determined using a validated liquid chromatography-tandem mass spectrometry (LC-MS/MS) method. The plasma concentration-time data were analyzed using a non-compartmental model using Pharsight WinNonlin.

[5] = 16 KRAS cancer patients treated

Molecule | TRS % ([1]; 0 day) [%] | TRS % ([1]; 40° C./75% RH, 1 week) [%] | TRS % ([1]; 60° C., 1 week) [%] | chemical degradation ([1]; after one week at 60° C. and 40° C./75% RH) | appearance by visual observation ([1]; both conditions after 1 week) | water (weight) gain [2] | number of PR [3, 5] [PR] | patients survived more than 2.2 months [3, 5] | clinical response ([3]; BRAF V600E CRC patients) | clinical response ([3]; BRAF V600E PTC patients) | clinical response ([3]; BRAF V600E melanoma patients) | CYP isoform responsible for metabolism (CYP3A) | TRS % ([1]; 0 day, listed as API free base) [%] | TRS % ([1]; 40° C./75% RH, 1 week, listed as API free base) [%] | TRS % ([1]; 60° C., 1 week, listed as API free base) [%] | solubility in water (aqueous solubility study) | aqueous solubility (aqueous solubility study; water, LOQ at 0.001 mg/mL) [µg/mL] | tissue distribution (tissue distribution) | Cmax [4] [ng/mL] | Dose-Normalized AUC0-inf [4] [ng·kg·h/mL/mg]
2-hydroxyethanesulfonate | 0.08 | 0.51 | 1.16 | showed degradations | no change | around 4% | – | – | – | – | – | – | – | – | – | – | – | – | – | –
O=C1CCc2c(Oc3ccc4c(c3)[C@@H]3[C@H](O4)[C@H]3c3nc4ccc(C(F)(F)F)cc4[nH]3)ccnc2N1 [Compound 1, 5-(((1R,1aS,6bR)-1-(6-(trifluoromethyl)-1H-benzo[d]imidazol-2-yl)-1a,6b-dihydro-1H-cyclopropa[b]benzofuran-5-yl)oxy)-3,4-dihydro-1,8-naphthyridin-2(1H)-one] | – | – | – | – | – | 2.2% | 3 | at least 12 patients | some anti-tumor activities | partial responses | partial responses | CYP3A was the major CYP isoform | 0.12 | 0.11 | 0.12 | substantially insoluble in water | < 1 | widely distributed to various tissues, but was low in brain tissue | 257 | 1512
